Reference: ChEMBL document CHEMBL1141813, “Activities of plant-derived phenols in a fibroblast cell culture model” (J Nat Prod, 1999)
pIC50: −log10 of the molar value. Calls of active or inactive are those of the source. No cut-off for these calls is given here.

How the values were obtained:
[1] = (§1) Growth inhibition of BALB/c mouse cloned 3T3/A31 cells after 72 hrs by nigrosin assay; assay type: functional, cell-based; details: BALB/3T3, 72 h
BALB/3T3 [2] = test: as §1; assay type: functional, cell-based
BALB/3T3 [3] = test: Growth inhibition of BALB/c mouse cloned 3T3/A31 cells at 10 to 100 ug/mL after 72 hrs by nigrosin assay; assay type: functional, cell-based
BALB/3T3 [4] = test: Stimulation of BALB/c mouse cloned 3T3/A31 cells growth at 0.01 to 0.1 ug/mL; assay type: functional
BALB/3T3 [5] = test: Cytotoxicity against BALB/c mouse cloned 3T3/A31 cells at 1 to 100 ug/mL after 72 hrs by nigrosin assay; assay type: functional, cell-based
BALB/3T3 [6] = test: Growth inhibition of BALB/c mouse cloned 3T3/A31 cells at 100 ug/mL after 72 hrs by nigrosin assay; assay type: functional, cell-based
BALB/3T3 [7] = test: Stimulation of BALB/c mouse cloned 3T3/A31 cells growth at 0.01 to 1 ug/mL; assay type: functional
BALB/3T3 [8] = test: Stimulation of BALB/c mouse cloned 3T3/A31 cells proliferation at 0.01 to 10 ug/mL; assay type: functional, cell-based
[9] = Stimulation of BALB/c mouse cloned 3T3/A31 cells proliferation at 0.01 ug/mL; assay type: functional, BALB/3T3
BALB/3T3 [10] = test: Growth inhibition of BALB/c mouse cloned 3T3/A31 cells at 0.01 to 100 ug/mL after 72 hrs by nigrosin assay; assay type: functional, cell-based

Row | SMILES | pIC50 [1] | Activity (BALB/3T3 [2]) | Activity (BALB/3T3 [3]) | other results
1 | O=c1c(O)c(-c2ccc(O)c(O)c2)oc2cc(O)cc(O)c12 [QUERCETIN] | 3.66 | Dose-dependent effect | Active | Activity (BALB/3T3 [4]): 5.3%
2 | O=c1cc(-c2ccccc2)oc2cc(O)cc(O)c12 [CHRYSIN] | 3.61 | Dose-dependent effect | – | Activity (BALB/3T3 [5]): Active
3 | COc1ccc(-c2coc3cc(O)cc(O)c3c2=O)cc1 [BIOCHANIN] | 3.66 | Dose-dependent effect | Active | –
4 | O=C(O)/C=C/c1ccccc1 [CINNAMIC ACID] | 3.17 | Dose-dependent effect | Active | –
5 | O=c1cc(-c2ccccc2)oc2cc(O)c(O)c(O)c12 [BAICALEIN] | 3.47 | Dose-dependent effect | Active | –
6 | C[C@@H]1O[C@@H](Oc2c(-c3ccc(O)c(O)c3)oc3cc(O)cc(O)c3c2=O)[C@H](O)[C@H](O)[C@H]1O [QUERCITRIN] | < 3.65 | Dose-dependent effect | – | Activity (BALB/3T3 [6]): Active; Activity (BALB/3T3 [7]): 4.9%
7 | O=C(/C=C/c1ccc(O)c(O)c1)O[C@@H]1C[C@](O)(C(=O)O)C[C@@H](O)[C@H]1O [CHLOROGENIC ACID] | < 3.55 | Dose-dependent effect | – | Activity (BALB/3T3 [6]): Active; Activity (BALB/3T3 [4]): 5.3%
8 | O=c1c(-c2ccc(O)cc2)coc2cc(O)cc(O)c12 [GENISTEIN] | 3.74 | Dose-dependent effect | – | Activity (BALB/3T3 [5]): Active; Activity (BALB/3T3 [4]): 5.3%
9 | O=C(O)/C=C/c1ccc(O)c(O)c1 [CAFFEIC ACID] | 3.26 | Dose-dependent effect | Active | –
10 | C[C@@H]1O[C@@H](OC[C@H]2O[C@@H](Oc3c(-c4ccc(O)c(O)c4)oc4cc(O)cc(O)c4c3=O)[C@H](O)[C@@H](O)[C@@H]2O)[C@H](O)[C@H](O)[C@H]1O [RUTIN] | < 3.79 | Dose-dependent effect | – | Activity (BALB/3T3 [8]): Active; Activity [9]: 30.4%
11 | COc1ccc(/C=C/C(=O)O)cc1OC [O,O'-DIMETHYLCAFFEIC ACID] | < 3.32 | Dose-dependent effect | Active | –
12 | Oc1cc(O)c2c(c1)OC(c1ccc(O)c(O)c1)C(O)C2 (configuration not stated) [CATECHIN] | < 3.46 | Dose-dependent effect | Active | –
13 | O=c1cc(-c2ccccc2)oc2ccccc12 [FLAVONE] | 3.54 | Dose-dependent effect | – | Activity (BALB/3T3 [5]): Active
14 | O=c1cc(-c2ccc(O)cc2)oc2cc(O)cc(O)c12 [APIGENIN] | 3.85 | Dose-dependent effect | – | Activity (BALB/3T3 [10]): Active
